Common to all, as to assay: NCI anticancer screen, dose series, 48 h
Test [1] relates to 786-0.
Test [2] has as its system A498.
Test [3] concerns CAKI-1.
Test [4] concerns HOP-62.
The subject of test [5] is MDA-MB-231.
Test [6] relates to NCI-H23.
For test [7], the system named is NCI/ADR-RES.
Test [8] deals with OVCAR-3.
The subject of test [9] is OVCAR-8.
Test [10] has as its system RPMI-8226.
For test [11], the system named is SF-539.
Test [12] relates to SK-MEL-5.
Test [13] concerns SNB-19.
For test [14], the system named is SNB-75.
The subject of test [15] is TK-10.
The test system of test [16] is UACC-62.
The subject of test [17] is M14.
Test [18] deals with NCI-H522.
The subject of test [19] is T47D.

SMILES strings stand for the structures.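 Briefly, cells in 96-well plates were exposed to five compound concentrations for 48 h, and endpoints were estimated by linear interpolation. At the GI50, growth is halved.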 Active and inactive are the calls of the source. No stated cut-off is given here; in the data, active = GI50 up to about 1.1 µM and inactive = higher.

This note sets out measurements from ChEMBL document CHEMBL1201862, “PubChem BioAssay data set” (2004).

In the case of `CCCCS/C(=C(/C#N)C(N)=O)c1cc2c([nH]1)CCCC2`, the GI50 is 11.5 µM (inactive) in [1]; 17.6 µM (inactive) in [2]; 14 µM (inactive) in test [3]; 21.9 µM (inactive) in test [4]; 13.1 µM (inactive) in test [5]; 16.7 µM (inactive) in [6]. Also, the GI50 is 8 µM (inactive) in test [7]; 15.7 µM (inactive) in test [8]; 15.6 µM (inactive) in test [9]; 6.71 µM (inactive) in [10]; 14.7 µM (inactive) in test [11]; 13.8 µM (inactive) in test [12]. For the same compound, the GI50 was 19.1 µM (inactive) in test [13], 15.3 µM (inactive) in [14], 15.3 µM (inactive) in [15] and 6.52 µM (inactive) in test [16].

For `COc1ccc(/C=C2\N=C(SC)N(CN3CCCCC3)C2=O)cc1`, the GI50 was > 100 µM (inactive) in test [1]; 42.4 µM (inactive) in test [2]; 58.7 µM (inactive) in [4]; > 100 µM (inactive) in test [17]; > 100 µM (inactive) in [5]; > 100 µM (inactive) in [6]. Also, the GI50 in test [18], in [7], in test [8], in test [9], in [10] and in test [12] was > 100 µM (inactive) in each case. For the same compound, the GI50 in [13], in test [14], in test [15] and in test [16] was > 100 µM (inactive) throughout.

As to `c1cc(-c2ccc(-c3ccc(-c4ccc(-c5cccc6nsnc56)[nH]4)c4nsnc34)[nH]2)c2nsnc2c1`, the GI50 in test [1], in test [4], in test [17], in [5], in test [6] and in [18] was > 100 µM (inactive) throughout. Moreover, the GI50 in [7], in test [8], in test [9], in test [10], in test [12] and in test [13] was > 100 µM (inactive) in each case. For the same compound, the GI50 in test [14], in [19], in test [15] and in [16] was > 100 µM (inactive) in each case.

Turning to `CCNC1=C(NC(=O)CCl)C(=O)c2ccccc2C1=O`, the GI50 in [1] was 34.4 µM (inactive); in [4], 16.5 µM (inactive); in test [17], 20.9 µM (inactive); in test [5], 21.5 µM (inactive); in test [6], 19 µM (inactive); in test [18], 15.1 µM (inactive). Moreover, the GI50 in test [7] was 23.6 µM (inactive); in [8], 17.7 µM (inactive); in [9], 20.1 µM (inactive); in [10] it was 34 µM (inactive); in test [11], 21.7 µM (inactive); in test [12], 16.7 µM (inactive). The GI50 in test [13] was 26.7 µM (inactive); in [14], > 10 µM (inactive); in test [19], 22.3 µM (inactive); in [15] it was 17.7 µM (inactive).

For the compound `COC(=O)[C@@H]1C[C@H]2OC(=O)CC[C@]2(C)O[C@H]1[C@H]1O[C@@](C)(O)CCC[C@H]1C`, the GI50 in test [1], in [3], in [4], in test [17], in test [5] and in test [6] was > 50 µM (inactive) in each case. Also, the GI50 in test [18] was 28.6 µM (inactive); in test [8], > 50 µM (inactive); in [9], > 50 µM (inactive); in test [10] it was > 50 µM (inactive); in [11], > 50 µM (inactive); in [12], > 50 µM (inactive). Also, the GI50 in test [13], in [19], in test [15] and in test [16] was > 50 µM (inactive) in each case.

On to `CN1CCN(C(=S)N(C)C(=O)c2ccc(Cl)cc2)CC1`, for which the GI50 in test [1], in test [17], in test [5], in test [6], in test [18] and in [8] was > 100 µM (inactive) throughout. Besides, the GI50 in test [9], in test [10], in test [12], in [13], in test [14] and in [19] was > 100 µM (inactive) in each case. The GI50 in test [15] and in test [16] was > 100 µM (inactive) in each case.

For the compound `C1CCNCC1.O=C1NC(=S)N/C1=C/c1ccccc1O`, the GI50 in [1], in test [3], in test [4], in test [17], in [5] and in test [6] was > 100 µM (inactive) throughout. Also, the GI50 in test [18] is 92 µM (inactive); in test [7] it was > 100 µM (inactive); in [8], > 100 µM (inactive); in test [9], > 100 µM (inactive); in test [10] it was 45.2 µM (inactive); in test [11] it was > 100 µM (inactive). The GI50 is > 100 µM (inactive) in test [12]; > 100 µM (inactive) in [13]; 56.2 µM (inactive) in test [19]; > 100 µM (inactive) in test [15]; > 100 µM (inactive) in test [16].

Take `CC1(c2ccccc2)CCN(C2CC2)CO1` (configuration not stated): the GI50 was 11.4 µM (inactive) in test [1]; 18.8 µM (inactive) in test [3]; > 100 µM (inactive) in [4]; 16.9 µM (inactive) in test [17]; 19.3 µM (inactive) in test [5]; 33 µM (inactive) in [6]. The GI50 is 20.7 µM (inactive) in test [7]; 17.7 µM (inactive) in [8]; 68.1 µM (inactive) in test [9]; 19.8 µM (inactive) in test [10]; > 100 µM (inactive) in test [12]; > 100 µM (inactive) in test [13]. Moreover, the GI50 is 64.9 µM (inactive) in [14], 17.3 µM (inactive) in test [19], 13.8 µM (inactive) in [15] and 18.1 µM (inactive) in test [16].

In the case of `COc1cc(S(=O)(=O)Nc2ccc(-c3csc(N4C(=O)C(C)SC4c4cccs4)n3)cc2)ccc1Cl` (configuration not stated), the GI50 is 34.6 µM (inactive) in test [1]; > 100 µM (inactive) in test [2]; 50.5 µM (inactive) in test [3]; 0.558 µM (active) in test [4]; 30.8 µM (inactive) in test [17]; 39.8 µM (inactive) in test [6]. For the same compound, the GI50 is 20.6 µM (inactive) in [18]; > 100 µM (inactive) in [7]; 58.5 µM (inactive) in test [8]; 32.4 µM (inactive) in [9]; 24.1 µM (inactive) in [10]; 48.9 µM (inactive) in [11]. In addition, the GI50 was 41.3 µM (inactive) in test [12], 10.8 µM (inactive) in [19] and 89.3 µM (inactive) in test [16].

Take `NC(CCCCNC(=O)OCc1ccccc1)C(=O)NC(CCCCNC(=O)OCc1ccccc1)C(=O)ON1C(=O)CCC1=O` (configuration not stated): the GI50 in test [1], in test [2], in [4], in [17], in test [5] and in test [6] was > 100 µM (inactive) throughout. Also, the GI50 in test [9] was > 100 µM (inactive); in [10], > 100 µM (inactive); in [12], > 100 µM (inactive); in [13], > 100 µM (inactive); in [14] it was 27.2 µM (inactive); in [19], > 100 µM (inactive). Further, the GI50 in [15] and in test [16] was > 100 µM (inactive) each time.

Turning to `C=C1c2nc3ccccc3n2C=C(c2ccccc2)N1c1ccc(C)cc1`, the GI50 is 45.3 µM (inactive) in test [1]; 52.7 µM (inactive) in [2]; 32.8 µM (inactive) in test [3]; > 100 µM (inactive) in test [17]; > 100 µM (inactive) in [5]; 58.6 µM (inactive) in test [6]. Further, the GI50 in test [18] is 35.1 µM (inactive); in [7] it was 37.7 µM (inactive); in test [8], 75 µM (inactive); in test [9], 48.5 µM (inactive); in test [10], 19.5 µM (inactive); in test [11], 63.8 µM (inactive). The GI50 in test [12] was 25.7 µM (inactive); in [13], > 100 µM (inactive); in test [14], > 100 µM (inactive); in test [15], 79.3 µM (inactive); in test [16] it was 64.4 µM (inactive).

In the case of `CCOc1ccc(NCc2cc(OC)c(OC)c(OC)c2)cc1`, the GI50 in [1] was 0.723 µM (active); in [4], 0.753 µM (active); in test [17], 0.371 µM (active); in test [5], 2.5 µM (inactive); in test [6] it was 1.24 µM (inactive); in test [18] it was 0.333 µM (active). The GI50 in [7] was 0.324 µM (active); in test [8] it was 0.339 µM (active); in test [10] it was 0.944 µM (active); in [11], 0.486 µM (active); in test [12], 0.506 µM (active); in test [13], 1.95 µM (inactive). Also, the results for the GI50 in [14] and in test [16] were 1.04 µM (active) and 0.423 µM (active), respectively.
